Earlier results on one molecule are cited in patent publication US11779563B2, “Oral cannabinoid pharmaceutical compositions and methods of treating sleep disorders” (Curio IP, LLC, priority 2021, dated 2023).

For the data set the following is noted: following smoking of the equivalent of 10-15 mg over 5-7 minutes.

For `CCCCCc1cc(O)c2c(c1)OC(C)(C)[C@@H]1CCC(C)=C[C@@H]21` [THC, (−)-(6aR,10aR)-6,6,9-trimethyl-3-pentyl-6a,7,8,10a-tetrahydro-6H-benzo[c]chromen-1-ol], the peak plasma levels result is “around 100 μg/L”.
